In ChEMBL document CHEMBL3872220, “Amphiphilic xanthones as a potent chemical entity of anti-mycobacterial agents with membrane-targeting properties” (Eur J Med Chem, 2016):
The source made the active and inactive calls. No cut-off for these calls is given here.

How the values were obtained:
[1] = test system: Mycobacterium tuberculosis variant bovis; experiment: Antimycobacterial activity against Mycobacterium bovis BCG ATCC 35734 assessed as ATP leakage by measuring extracellular ATP at 2 times MIC measured at 6 hrs post dose by luciferase reporter gene assay; assay type: functional, Mycobacterium tuberculosis variant bovis BCG
[2] = test system: Mycobacterium tuberculosis variant bovis; experiment: Antimycobacterial activity against Mycobacterium bovis BCG ATCC 35734 assessed as ATP leakage by measuring intracellular ATP at 1 MIC measured at 1 hr post dose by luciferase reporter gene assay; assay type: functional, Mycobacterium tuberculosis variant bovis BCG
[3] = test system: Mycobacterium tuberculosis variant bovis; experiment: Antimycobacterial activity against Mycobacterium bovis BCG ATCC 35734 assessed as ATP leakage by measuring intracellular ATP at 2 times MIC measured at 6 hrs post dose by luciferase reporter gene assay; assay type: functional, Mycobacterium tuberculosis variant bovis BCG
[4] = test system: Mycobacterium tuberculosis variant bovis; experiment: Antimycobacterial activity against Mycobacterium bovis BCG ATCC 35734 assessed as ATP leakage by measuring intracellular ATP at 1 MIC measured at 3 hrs post dose by luciferase reporter gene assay; assay type: functional, Mycobacterium tuberculosis variant bovis BCG
[5] = test system: Mycobacterium tuberculosis variant bovis; experiment: Antimycobacterial activity against Mycobacterium bovis BCG ATCC 35734 assessed as ATP leakage by measuring intracellular ATP at 0.5 times MIC measured at 24 hrs post dose by luciferase reporter gene assay; assay type: functional, Mycobacterium tuberculosis variant bovis BCG
[6] = test system: Mycobacterium tuberculosis variant bovis; experiment: Antimycobacterial activity against Mycobacterium bovis BCG ATCC 35734 assessed as ATP leakage by measuring intracellular ATP at 1 MIC measured immediatey after addition of compounds by luciferase reporter gene assay; assay type: functional, Mycobacterium tuberculosis variant bovis BCG
[7] = test system: Mycobacterium tuberculosis variant bovis; experiment: Antimycobacterial activity against Mycobacterium bovis BCG ATCC 35734 assessed as ATP leakage by measuring intracellular ATP at 2 times MIC measured at 3 hrs post dose by luciferase reporter gene assay; assay type: functional, Mycobacterium tuberculosis variant bovis BCG
[8] = test system: Mycobacterium tuberculosis variant bovis; experiment: Antimycobacterial activity against Mycobacterium bovis BCG ATCC 35734 assessed as ATP leakage by measuring extracellular ATP at 0.5 times MIC measured at 24 hrs post dose by luciferase reporter gene assay; assay type: functional, Mycobacterium tuberculosis variant bovis BCG
[9] = test system: Mycobacterium tuberculosis variant bovis; experiment: Antimycobacterial activity against Mycobacterium bovis BCG ATCC 35734 assessed as ATP leakage by measuring intracellular ATP at 4 times MIC measured at 6 hrs post dose by luciferase reporter gene assay; assay type: functional, Mycobacterium tuberculosis variant bovis BCG
[10] = test system: Mycobacterium tuberculosis variant bovis; experiment: Antimycobacterial activity against Mycobacterium bovis BCG ATCC 35734 assessed as ATP leakage by measuring extracellular ATP at 4 times MIC measured at 1 hr post dose by luciferase reporter gene assay; assay type: functional, Mycobacterium tuberculosis variant bovis BCG
[11] = test system: Mycobacterium tuberculosis variant bovis; experiment: Antimycobacterial activity against Mycobacterium bovis BCG ATCC 35734 assessed as ATP leakage by measuring intracellular ATP at 2 times MIC measured immediatey after addition of compounds by luciferase reporter gene assay; assay type: functional, Mycobacterium tuberculosis variant bovis BCG
[12] = test system: Mycobacterium tuberculosis variant bovis; experiment: Antimycobacterial activity against Mycobacterium bovis BCG ATCC 35734 assessed as ATP leakage by measuring extracellular ATP at 1 MIC measured immediatey after addition of compounds by luciferase reporter gene assay; assay type: functional, Mycobacterium tuberculosis variant bovis BCG
[13] = test system: Mycobacterium tuberculosis variant bovis; experiment: Antimycobacterial activity against Mycobacterium bovis BCG ATCC 35734 assessed as ATP leakage by measuring extracellular ATP at 2 times MIC measured at 1 hr post dose by luciferase reporter gene assay; assay type: functional, Mycobacterium tuberculosis variant bovis BCG
[14] = test system: Mycobacterium tuberculosis variant bovis; experiment: Antimycobacterial activity against Mycobacterium bovis BCG ATCC 35734 assessed as ATP leakage by measuring extracellular ATP at 4 times MIC measured at 6 hrs post dose by luciferase reporter gene assay; assay type: functional, Mycobacterium tuberculosis variant bovis BCG
[15] = test system: Mycobacterium tuberculosis variant bovis; experiment: Antimycobacterial activity against Mycobacterium bovis BCG ATCC 35734 assessed as ATP leakage by measuring extracellular ATP at 0.5 times MIC measured at 9 hrs post dose by luciferase reporter gene assay; assay type: functional, Mycobacterium tuberculosis variant bovis BCG
[16] = test system: Mycobacterium tuberculosis variant bovis; experiment: Bactericidal activity against Mycobacterium bovis BCG ATCC 35734 assessed as log reduction in bacterial colonies at 4 times MIC measured after 24 hrs by time-kill assay; assay type: functional, Mycobacterium tuberculosis variant bovis BCG
[17] = test system: Mycobacterium tuberculosis variant bovis; experiment: Antimycobacterial activity against Mycobacterium bovis BCG ATCC 35734 assessed as ATP leakage by measuring extracellular ATP at 1 MIC measured at 6 hrs post dose by luciferase reporter gene assay; assay type: functional, Mycobacterium tuberculosis variant bovis BCG
[18] = test system: Mycobacterium tuberculosis variant bovis; experiment: Antimycobacterial activity against Mycobacterium bovis BCG ATCC 35734 assessed as ATP leakage by measuring extracellular ATP at 1 MIC measured at 3 hrs post dose by luciferase reporter gene assay; assay type: functional, Mycobacterium tuberculosis variant bovis BCG
[19] = test system: Mycobacterium tuberculosis variant bovis; experiment: Antimycobacterial activity against Mycobacterium bovis BCG ATCC 35734 assessed as ATP leakage by measuring intracellular ATP at 4 times MIC measured at 9 hrs post dose by luciferase reporter gene assay; assay type: functional, Mycobacterium tuberculosis variant bovis BCG
[20] = test system: Mycobacterium tuberculosis variant bovis; experiment: Induction of membrane integrity impairment in Mycobacterium bovis BCG ATCC 35734 assessed as pH shift at 30 uM after 3 hrs by dye based fluorescence spectroscopic method relative to control; assay type: functional, Mycobacterium tuberculosis variant bovis BCG
[21] = test system: Mycobacterium tuberculosis variant bovis; experiment: Bactericidal activity against Mycobacterium bovis BCG ATCC 35734 measured after 14 days by time-kill assay; assay type: functional
[22] = test system: Mycobacterium tuberculosis variant bovis; experiment: Bactericidal activity against Mycobacterium bovis BCG ATCC 35734 assessed as log reduction in bacterial colonies at 4 times MIC measured after 3 hrs by time-kill assay; assay type: functional, Mycobacterium tuberculosis variant bovis BCG
[23] = test system: Mycobacterium tuberculosis variant bovis; experiment: Bactericidal activity against Mycobacterium bovis BCG ATCC 35734 assessed as log reduction in bacterial colonies measured up to 24 hrs by time-kill assay; assay type: functional
[24] = test system: Mycobacterium tuberculosis variant bovis; experiment: Induction of membrane disruption in Mycobacterium bovis BCG ATCC 35734 at 60 uM up to 3 hrs by Sytox green uptake assay; assay type: functional

| Structure (SMILES) | Activity [1] [%] | Activity [2] [%] | Activity [3] [%] | Activity [4] [%] | Activity [5] [%] | Activity [6] [%] | Activity [7] [%] | Activity [8] [%] | Activity [9] [%] | Activity [10] [%] | Activity [11] [%] | Activity [12] [%] | Activity [13] [%] | Activity [14] [%] | Activity [15] [%] | Activity [17] [%] | Activity [18] [%] | Activity [19] [%] | Activity [20] [%] | also measured |
| --- | --- | --- | --- | --- | --- | --- | --- | --- | --- | --- | --- | --- | --- | --- | --- | --- | --- | --- | --- | --- |
| COc1c(OCCCCN2CCOCC2)cc2oc3cc(OCCCCN4CCOCC4)c(CC=C(C)C)c(O)c3c(=O)c2c1CC=C(C)C | 27.4 | 88.5 | 72.6 | 92.3 | 95.2 | 95.3 | 80 | 4.8 | 37.2 | 25.4 | 91.9 | 4.7 | 16.7 | 62.8 | 7.3 | 14.4 | 7.7 | 41.6 |  | Activity [16]: 3.3 |
| CCCN(CCC)CCCCOc1cc2oc3cc(OCCCCN(CCC)CCC)c(OC)c(CC=C(C)C)c3c(=O)c2c(O)c1CC=C(C)C | 63.2 | 86.8 | 36.8 | 75.8 | 84.4 | 97.5 | 55.8 | 15.6 | 30.3 | 16.8 | 97.8 | 2.5 | 10.1 | 69.7 | 25.4 | 30.4 | 24.2 | 16 | 76.6 | Activity [21]: Dose-dependent effect; Activity [22]: 1.5; Activity [23]: Dose-dependent effect |
| CCN(CC)CCCCOc1cc2oc3cc(OCCCCN(CC)CC)c(OC)c(CC=C(C)C)c3c(=O)c2c(O)c1CC=C(C)C | 91.9 | 75.1 | 8.1 | 33.9 | 65.3 | 98 | 16.4 | 34.7 | 6.7 | 66 | 96.4 | 2 | 42.4 | 93.3 | 47.2 | 70.7 | 66.1 | 5.5 | 20 | Activity [24]: Active |
